# Measurements published in patent publication US7589077B2, “Antiviral nucleosides” (priority 2001, dated 2009).
# Like-named read-outs stand apart in the source and are kept apart here.
# Columns and labels:
# HCMV (AD169) = assay: CPE inhibition assay HCMV (AD169) in HFF cells; format: cell-based, human cytomegalovirus; details: Table 4
# Procedure: (§1) Cytopathic effect (CPE) inhibition assays for HSV-1, HSV-2, HCMV and VZV were performed as follows: Low passage human foreskin fibroblasts (HFF) cells were seeded into 96 well tissue culture plates 24 h prior to use at a cell concentration of 2.5×10^4 cells per mL in 0.1 mL of minimal essential medium (MEM) supplemented with 10% fetal bovine serum (FBS). The cells were then incubated for 24 h at 37° C. in a CO2 incubator. After incubation, the medium was removed and 100 μL of MEM containing 2% FBS was added to all but the first row. In the first row, 125 μL of experimental drug was added in triplicate wells. Medium alone was added to both cell and virus control […]. After incubation, the medium was removed and 100 μl of MEM containing 2% FBS was added to all but the first row. Medium alone was added to both cell and virus control wells. 125 μl of Experimental drug was added in triplicate wells. The drug in the first row of wells was then diluted serially 1:5 throughout the remaining wells by transferring 25 μL using the Cetus Liquid Handling Machine. After dilution of drugs, 100 μL of the appropriate virus concentration was added to each well, excluding the cell control wells which received 100 μL of MEM. For HSY-1 and HSV-2 assays, the virus concentration utilized was 1000 PFU's per well. For CMV and VZV assays, the virus concentration added was 2500 PFU's per well. The plates were then incubated at 37° C. in a CO2 incubator for 3 days for HSV-1 and HSV-2, 10 days for VZV, or 14 days for CMV. After the incubation period, media was aspirated and the cells stained with a 0.1% crystal violet solution for 30 min. The stain was then removed and the plates were allowed to dry 24 h and then read on a Skatron Plate Reader at 620 nm.
# Vero cells = assay: Cell cytotoxicity in Vero cells; format: cell-based; details: Table 1
# Procedure: (§2) The compounds were assayed for a) their ability to inhibit DHBV DNA replication in duck hepatocytes, b) their ability to inhibit HBV DNA replication in HepG2 2.2.15 cells, c) the cell cytotoxicity in Vero cells, the cell viability in HFF cells, d) the cell proliferation in HFF cells, and e) the T cell proliferation (purified T cells, PHA stimulated). 3-TC was used as a control.
# HFF cells = assay: Cell viability in HFF cells (neutral red); format: cell-based, human
# Procedure: Twenty-four hours prior to assay HFF cells were plated into 96 well plates at a concentration of 2.5×10^4 cells per well. […] The plates were incubated for 7 days in a CO2 incubator at 37° C. At this time the media/drug was aspirated and 200 μL/well of 0.01% neutral red in Dulbecco's Phosphate Buffered Saline (DPBS) was added. This was incubated in the CO2 incubator for 2 h, the dye was aspirated and the cells were washed using a Nunc Plate Washer. After removing the DPBS wash, […] of 50% EtOH: 1% glacial acetic acid in water was added. The plates were rotated for 15 min. and the optical densities were read at 550 nm on a plate reader.
# Epstein-Barr Virus (EBV) = assay: EBV immunofluorescence assay in DAUDI cells (P3HR-1 strain); format: cell-based
# Procedure: The immunofluorescence assay, using monoclonal antibodies, for Epstein-Barr Virus (EBV) was performed as follows: DAUDI cells were infected with the P3HR-1 strain of EBV and the test drug was added after adsorption (45 min. at 37° C.) and washing of the cell cultures. These cultures were then incubated for 2 days in complete medium to allow viral gene expression. Following the 48 h incubation period, the number of cells in each sample were counted and smears were made. Monoclonal antibodies to the different early antigen (EA) components and VCA were than added to the cells, incubated and washed. This was followed by the addition of a fluorescein conjugated rabbit anti mouse Ig antibodies. The number of fluorescence positive cells in the smears were counted and the total number of cells in the cultures positive for EA or VCA were then calculated and compared.
# HSV-1 (KOSSB) HSV-TK− = assay: microbe, parasite or virus in culture; format: cell-based, Herpes simplex virus type-1; details: Table 4
# Procedure: as §1, with “The” for “Cytopathic effect (CPE) inhibition assays for HSV-1, HSV-2, HCMV and VZV were performed as follows: Low passage human foreskin fibroblasts (HFF) cells were seeded into 96 well tissue culture plates 24 h prior to use at a cell concentration of 2.5×10^4 cells per mL in 0.1 mL of minimal essential medium (MEM) supplemented with 10% fetal bovine serum (FBS). The”
# HSV-1 (KOS) HSV-TK+ = HSV-1 (KOS) HSV-TK+ antiviral assay; format: cell-based, Herpes simplex virus type-1; details: Table 4
# Procedure: as §1
# HSV-1 (E-377) = assay: CPE inhibition assay HSV-1 (E-377) in HFF cells; format: cell-based, Herpes simplex virus type-1; details: Table 4
# Procedure: as §1
# HSV-2 (MS) = assay: CPE inhibition assay HSV-2 (MS) in HFF cells; format: cell-based, Herpes simplex virus type-2; details: Table 4
# Procedure: as §1
# whole human PBLs = assay: Cell proliferation, whole human PBLs; format: cell-based; details: Table 1
# VZV (Ellen) = assay: CPE inhibition assay VZV (Ellen) in HFF cells; format: cell-based, varicella zoster virus
# Procedure: as §1
# [1] = test system: duck hepatitis B virus (DHBV); assay: DHBV DNA replication in primary duck hepatocytes (dot blot hybridization); format: cell-based
# Procedure: A series of compounds were synthesized and assayed for activity against duck hepatitis B virus (DHBV). […] Test compounds were added to the hepatocyte cultures on day 2 and maintained in culture with media changed every second day until day 12. Cell were harvested at day 14 and lysed with buffer containing 1% SDS. DNA was isolated from the lysate and dot blot hybridization was performed using a DHBV (32P) DNA probe. […]
# as §2
# human HBV = assay: HBV DNA replication in HepG2 2.2.15 cells; format: cell-based, hepatitis B virus; details: Table 3a; read-out: % Inhibition of human HBV DNA replication in HepG2 2.2.15 cells EC50
# Procedure: as §2, with “control. Additional compounds described below in the Preparative Examples section were also tested, and the results are shown in Tables 2-4 below. The reference numbers for the compounds are found in the Preparative Examples.” for “control.”
# CEM cells = assay: Cell cytotoxicity in CEM cells; format: cell-based; details: Table 3a
Compound,HCMV (AD-169) EC50 (HCMV (AD169)),CC50 (Vero cells),"CC50 (HFF cells; Table 1, read-out: Cell viability, HFF cells, CC50 μM)",EBV EC50 (Epstein-Barr Virus (EBV); Table 4),HSV-1 (KOSSB) HSV-TK− EC50 (HSV-1 (KOSSB) HSV-TK−),HSV-1 (KOS) HSV-TK+ EC50 (HSV-1 (KOS) HSV-TK+),"HSV-1 (E-377) EC50, μg/ml (HSV-1 (E-377))",HSV-2 (MS) EC50 (HSV-2 (MS)),IC50 (whole human PBLs),VZV (Ellen) EC50 (VZV (Ellen); Table 4),% Inhibition of DHBV DNA replication in duck hepatocytes @10 μg/ml [1],"CC50 (HFF cells; Table 3a, read-out: Cell viability HFF cells CC50)",EBV EC50 (Epstein-Barr Virus (EBV); Table 3a),"EBV EC90 (Epstein-Barr Virus (EBV); Table 3a, in parentheses)",EC50 (human HBV),CC50 (CEM cells),VZV (Ellen) EC50 (VZV (Ellen); Table 3a)
"(5R,6R)5-fluoro-O^6-5′-cyclo-5,6-dihydro-3′-azido-3′-deoxythymidine [Compound R-14]",>100 µg/mL,100 to 200 µM,> 350 µM,<0.08 µg/mL,>50 µg/mL,>25 µg/mL,>100 μg/ml,>100 µg/mL,> 350 µM,>100 µg/mL,81.0%,,,,,,
"CCO[C@@H]1C(Cl)C(=O)NC(=O)N1[C@H]1C[C@H](F)[C@@H](CO)O1 (single isomer, unassigned; (+)) [RB-2]",,,,,,,,,,,,> 330 µM,0.15 to 0.3 µg/mL,9.8 µg/mL,2.8 µM,> 200 µM,0.3 µg/mL
